Results published in patent US4999444A, “Novel neutral mixed ligand platinum(II) and platinum(IV) complexes” (Warner-Lambert Co., priority 1989, dated 1991).
Read-outs that look alike come from different tables or passages of the source.

Experiments:
L1210PtR4 = assay: In vitro cytotoxicity (ID50, 72 h growth inhibition), L1210PtR4; type: cell-based, murine; conditions: for ID50: in vitro, 72 h
Method: (§1) ID50 values are the concentration of complex required to inhibit the in vitro growth of treated cells to a level of 50% of that for untreated cells over a 72-hour period. The cell lines are suspended in appropriate media at a concentration which results in the cells remaining in log phase growth throughout the treatment period. Serially diluted drug is added to duplicate wells containing the cell growth. After 72 hours of incubation of the cell lines in 5% CO2, the cells are counted and the ID50 values determined.
(§2) Resistance ratio values shown in Table 1 were calculated by dividing the ID50 values against the resistant cell lines by the ID50 values against the normal cell lines. The resistance ratio values shown in the table indicate a measure of the degree of resistance of the cell line to a particular drug.

P388S = assay: In vitro cytotoxicity (ID50, 72 h growth inhibition), P388S; type: cell-based, murine
Method: as §1

P388Pt4 = assay: In vitro cytotoxicity (ID50, 72 h growth inhibition), P388Pt4; type: cell-based, murine; conditions: for ID50: in vitro, 72 h
Method: as §1, §2

[1] = tested on: L-1210/Pt Leukemia (Cisplatin Resistant); assay: In vivo antitumor activity in mice, L-1210/Pt Leukemia (Cisplatin Resistant); parameters: species or system mice (murine leukemia); conditions: IP, Days 3, 7, 11; for % T/C: best responses
L1210S = assay: In vitro cytotoxicity (ID50, 72 h growth inhibition), L1210S; type: cell-based, murine
Method: as §1

L1210DDP5 = assay: In vitro cytotoxicity (ID50, 72 h growth inhibition), L1210DDP5; type: cell-based, murine; conditions: for ID50: in vitro, 72 h
Method: as §1, §2

[2] = tested on: P-388/Pt (Cisplatin Resistant); assay: In vivo antitumor activity, P-388 (Lymphocytic Leukemia), P-388/Pt (Cisplatin Resistant); parameters: species or system mice (murine leukemia); conditions: IP, Days 1, 5, 9; for % T/C: best responses
From the text: (§3) The screening tests employing these cell lines are described in Geran et al., "Protocols for Screening Chemical Agents and Natural Products Against Animal Tumors and Other Biological Systems," Cancer Chemotherapy Reports, Part 3, Vol. 3, No. 2, pages 1-85 (1972). The L1210 and P388 screening methods have been cited as the best tools for predicting clinical utility of drugs in the treatment of human solid tumors as well as human leukemias and lymphomas (Venditti, "Relevance of Transplantable Animal-Tumor Systems to the Selection of New Agents for Clinical Trial," Pharmacological Basis of Cancer Chemotherapy, […] Pub. Co. (1975)).
^g Schedule: Days 1, 5, 9

L1210DACH = assay: In vitro cytotoxicity (ID50, 72 h growth inhibition), L1210DACH (Pt(DACH)Cl2-resistant L1210); type: cell-based, murine; conditions: for ID50: in vitro, 72 h
Method: as §1, §2

L-1210 Leukemia = assay: In vivo antitumor activity in mice, L-1210 Leukemia; parameters: species or system mice (murine leukemia); conditions: IP, Days 3, 7, 11; for % T/C: best responses
From the text: as §3
In Table 2, the ratio of median survival time of laboratory mice which had been treated with the test compound to untreated control animals is expressed as a percentage (%T/C values). […] Data for the prior art complex cisplatin is included for comparison.
^a Inoculum: 10,000 cells (IP)
^b Schedule: Days 3, 7, 11

[3] = tested on: cisplatin-resistant cells; assay: Activity against cisplatin-resistant cells in vitro and in vivo; parameters: species or system murine
Method: as §1, §2
(§4) In Table 2, the ratio of median survival time of laboratory mice which had been treated with the test compound to untreated control animals is expressed as a percentage (%T/C values). Laboratory mice were implanted intraperitonealy with the L1210 murine leukemia cell line on Day 0 and treated with intraperitoneal injections of representative platinum complexes of the present invention on Days 3 and 7 at the dosages indicated. Data for the prior art complex cisplatin is included for comparison.

[4] = tested on: L1210 and P388 murine leukemia cell lines; assay: Antitumor activity in L1210 and P388 murine leukemia, in vitro and in vivo; conditions: in vitro and in vivo test results
Method: as §1, §3
In Table 2, the ratio of median survival time of laboratory mice which had been treated with the test compound to untreated control animals is expressed as a percentage (%T/C values). […]

[5] = tested on: parent L1210 and P388 leukemia cell lines; assay: In vivo activity against parent L1210 and P388 leukemia; parameters: species or system mice (murine leukemia)
From the text: as §3, §4

[6] = first pair of lines, 5.0 mg/kg/injection
[7] = second pair of lines, 5.0 mg/kg/injection
[8] = ID50 resistant line / ID50 normal line, 4320 min
[9] = first pair of lines, 3.7 mg/kg/injection
[10] = second pair of lines, 3.7 mg/kg/injection

N.N.[Cl][Pt][Cl] [Cisplatin, cis-diaminedichloroplatinum(II), reference compound]
ID50 (L1210PtR4): 7.84 µg/mL
ID50 (P388S): 0.128 µg/mL
ID50 (P388Pt4): 10.0 µg/mL
60 Day Survivors ([1]; 4.0 mg/kg/injection): 0/6
Log10 Kill Gross ([1]; 4.0 mg/kg/injection): 0.7
Log10 Kill Net ([1]; 4.0 mg/kg/injection): -2.5
MLS (median life span) ([1]; 4.0 mg/kg/injection): 11.1 days
% T/C ([1]; 4.0 mg/kg/injection): 109%
60 Day Survivors ([1]; 6.0 mg/kg/injection): 0/6
Log10 Kill Gross ([1]; 6.0 mg/kg/injection): 1.5
Log10 Kill Net ([1]; 6.0 mg/kg/injection): -2.4
MLS (median life span) ([1]; 6.0 mg/kg/injection): 12.0 days
Weight Change ([1]; 6.0 mg/kg/injection): -3.7 grams
% T/C ([1]; 6.0 mg/kg/injection): 118%
ID50 (L1210S): 0.375 µg/mL
ID50 (L1210DDP5): 4.11 µg/mL
Log10 Kill Net [2, 6]: 6.8
% T/C [2, 6]: 261%
Log10 Kill Net [2, 7]: -1.5
% T/C [2, 7]: 132%
ID50 (L1210DACH; L1210DACH): 0.52 µg/mL
60 Day Survivors (L-1210 Leukemia; 4.0 mg/kg/injection): 1/6
Log10 Kill Gross (L-1210 Leukemia; 4.0 mg/kg/injection): 9.4
Log10 Kill Net (L-1210 Leukemia; 4.0 mg/kg/injection): 0.9
MLS (median life span) (L-1210 Leukemia; 4.0 mg/kg/injection): 19.5 days
Weight Change (L-1210 Leukemia; 4.0 mg/kg/injection): 1.0 grams
% T/C (L-1210 Leukemia; 4.0 mg/kg/injection): 184%
60 Day Survivors (L-1210 Leukemia; 6.0 mg/kg/injection): 1/6
Log10 Kill Gross (L-1210 Leukemia; 6.0 mg/kg/injection): 8.3
Log10 Kill Net (L-1210 Leukemia; 6.0 mg/kg/injection): -0.1
MLS (median life span) (L-1210 Leukemia; 6.0 mg/kg/injection): 18.5 days
Weight Change (L-1210 Leukemia; 6.0 mg/kg/injection): -1.9 grams
% T/C (L-1210 Leukemia; 6.0 mg/kg/injection): 175%

[Cl][Pt]1([Cl])[NH]C2CCC(CC2)[NH]1 [Example 1, [SP-4-2-(c-is)]-Dichloro(1,4-cyclohexanediamine-N,N')-platinum]
Fold resistance (resistance ratio) (L1210PtR4; [8]): 4.9 fold
ID50 (L1210PtR4): 1.21 µg/mL
ID50 (P388S): 0.047 µg/mL
Fold resistance (resistance ratio) (P388Pt4; [8]): 30 fold
ID50 (P388Pt4): 1.43 µg/mL
cross resistance to cisplatin [3]: some degree of cross resistance to cisplatin
effectiveness against cisplatin-resistant cells vs cisplatin [3]: more effective than cisplatin
60 Day Survivors ([1]; 0.8 mg/kg/injection): 0/6
Log10 Kill Gross ([1]; 0.8 mg/kg/injection): 2.1
Log10 Kill Net ([1]; 0.8 mg/kg/injection): -2.2
MLS (median life span) ([1]; 0.8 mg/kg/injection): 12.8 days
% T/C ([1]; 0.8 mg/kg/injection): 126%
60 Day Survivors ([1]; 1.5 mg/kg/injection): 0/6
Log10 Kill Gross ([1]; 1.5 mg/kg/injection): 4.5
Log10 Kill Net ([1]; 1.5 mg/kg/injection): -1.7
MLS (median life span) ([1]; 1.5 mg/kg/injection): 15.7 days
% T/C ([1]; 1.5 mg/kg/injection): 154%
60 Day Survivors ([1]; 3.0 mg/kg/injection): 2/6
Log10 Kill Gross ([1]; 3.0 mg/kg/injection): 5.5
Log10 Kill Net ([1]; 3.0 mg/kg/injection): -1.0
MLS (median life span) ([1]; 3.0 mg/kg/injection): 17.0 days
% T/C ([1]; 3.0 mg/kg/injection): 167%
60 Day Survivors ([1]; 6.3 mg/kg/injection): 0/6
Log10 Kill Gross ([1]; 6.3 mg/kg/injection): 0.1
Log10 Kill Net ([1]; 6.3 mg/kg/injection): -2.7
MLS (median life span) ([1]; 6.3 mg/kg/injection): 10.3 days
% T/C ([1]; 6.3 mg/kg/injection): 101%
antitumor activity, potency and response vs cisplatin [4]: superior to cisplatin both in potency and response
ID50 (L1210S): 0.248 µg/mL
Fold resistance (resistance ratio) (L1210DDP5; [8]): 2.7 fold
ID50 (L1210DDP5): 0.663 µg/mL
Log10 Kill Net [2, 9]: 5.4
% T/C [2, 9]: 234%
Log10 Kill Net [2, 10]: 1.9
% T/C [2, 10]: 177%
effectiveness against parent L1210 and P388 leukemia in vivo vs cisplatin [5]: equally effective or superior to cisplatin
cross resistance to Pt(DACH)Cl2-resistant L1210 cells in culture (L1210DACH): four
Fold resistance (resistance ratio) (L1210DACH; ID50 resistant line / ID50 normal line, L1210DACH, 4320 min): 4.3 fold
ID50 (L1210DACH; L1210DACH): 1.08 µg/mL
60 Day Survivors (L-1210 Leukemia; 0.8 mg/kg/injection): 0/6
Log10 Kill Gross (L-1210 Leukemia; 0.8 mg/kg/injection): 3.4
Log10 Kill Net (L-1210 Leukemia; 0.8 mg/kg/injection): -1.5
MLS (median life span) (L-1210 Leukemia; 0.8 mg/kg/injection): 13.0 days
% T/C (L-1210 Leukemia; 0.8 mg/kg/injection): 130%
60 Day Survivors (L-1210 Leukemia; 1.5 mg/kg/injection): 0/6
Log10 Kill Gross (L-1210 Leukemia; 1.5 mg/kg/injection): 13.1
Log10 Kill Net (L-1210 Leukemia; 1.5 mg/kg/injection): 4.6
MLS (median life span) (L-1210 Leukemia; 1.5 mg/kg/injection): 23.0 days
% T/C (L-1210 Leukemia; 1.5 mg/kg/injection): 217%
60 Day Survivors (L-1210 Leukemia; 3.0 mg/kg/injection): 1/6
Log10 Kill Gross (L-1210 Leukemia; 3.0 mg/kg/injection): 11.5
Log10 Kill Net (L-1210 Leukemia; 3.0 mg/kg/injection): 3.1
MLS (median life span) (L-1210 Leukemia; 3.0 mg/kg/injection): 21.5 days
% T/C (L-1210 Leukemia; 3.0 mg/kg/injection): 203%
60 Day Survivors (L-1210 Leukemia; 6.3 mg/kg/injection): 0/6
Log10 Kill Gross (L-1210 Leukemia; 6.3 mg/kg/injection): 0.1
Log10 Kill Net (L-1210 Leukemia; 6.3 mg/kg/injection): -1.9
MLS (median life span) (L-1210 Leukemia; 6.3 mg/kg/injection): 10.7 days
% T/C (L-1210 Leukemia; 6.3 mg/kg/injection): 101%

NC1CCCCC1N.[Cl][Pt][Cl] (stereo not drawn) [[Pt(trans-l-DACH)Cl2], [SP-4-2-(1R-trans)]-dichloro(1,2-cyclohexanediamine-N,N')platinum, reference compound]
ID50 (L1210PtR4): 0.161 µg/mL
ID50 (P388S): 0.077 µg/mL
ID50 (P388Pt4): 0.83 µg/mL
ID50 (L1210S): 0.059 µg/mL
ID50 (L1210DDP5): 0.164 µg/mL
cross resistance to Pt(DACH)Cl2-resistant L1210 cells in culture (L1210DACH; 4320 min): 77 fold
ID50 (L1210DACH; L1210DACH): 4.57 µg/mL
